Experimental data: patent publication US20060276464A1, “Diarylsulfone sulfonamides and use thereof” (Wyeth, priority 2005, published 2006)
Values joined by “and” are separate entries in the source; they are usually repeats but may differ in a detail not shown here. Identical values can stand only once. Like-named read-outs stand apart in the source and are kept apart here.

Tests used:
SFRP-1 [1] = target: T1, SFRP-1 (Homo sapiens, UniProt Q8N474); assay: Fluorescence polarization binding assay (competitive displacement of a probe compound from SFRP-1); settings: fluorescence anisotropy, 45 nM SFRP-1, 20 nM probe;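 also: test compound competes with a fluorescent probe held by SFRP-1, seen as a drop in probe anisotropy after incubation in darkness, with anisotropy as function of rising compound dose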
T1 sequence (Q8N474 32-314): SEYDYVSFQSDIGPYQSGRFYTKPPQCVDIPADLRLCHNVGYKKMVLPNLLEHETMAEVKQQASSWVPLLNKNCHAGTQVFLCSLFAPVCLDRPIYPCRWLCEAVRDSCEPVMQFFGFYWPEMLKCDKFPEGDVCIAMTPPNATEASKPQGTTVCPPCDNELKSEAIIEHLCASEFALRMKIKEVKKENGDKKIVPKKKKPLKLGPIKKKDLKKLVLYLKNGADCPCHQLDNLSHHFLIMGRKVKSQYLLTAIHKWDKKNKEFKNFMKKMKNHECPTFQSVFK

SFRP-1 [2] = target: T1, SFRP-1; assay: Cell-based assay for in vitro measurement of SFRP-1/SARP2 antagonist activity (U2OS cells co-transfected with 16x TCF-tk-Luciferase reporter, Wnt and hSFRP-1); settings: for fold induction at 10 µM / fold induction at 15 µM: U2OS;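 as to all read-outs here: U2OS cells co-transfected with a TCF-tk luciferase reporter, a Wnt vector, hSFRP-1 or empty vector and CMV-βgal, luciferase luminescence read in cell lysates alongside βgal activity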
[3] = read-out: Fold Induction with SFRP-1, U2OS cells, single dose 10 μM, luciferase reporter, fold induction over SFRP-1 control
[4] = read-out: Fold Induction with SFRP-1, Conc 15 μM, single dose, luciferase reporter, fold induction over SFRP-1 control, cells with SFRP-1
[5] = read-out: Fold Induction without SFRP-1, Conc 15 μM, single dose, luciferase reporter, cells without SFRP-1 (specificity control)
[6] = read-out: Fold Induction with SFRP-1, Conc 15 μM, with SFRP-1, fold induction over SFRP-1 control, single dose
[7] = read-out: Fold Induction without SFRP-1, Conc 15 μM, without SFRP-1, single dose

Row | Structure (SMILES) | IC50 (SFRP-1 [1]) | EC50 (SFRP-1 [2]) [nM] | fold induction at 10 µM (SFRP-1 [2]; [3]) | fold induction at 15 µM (SFRP-1 [2]; [4]) | fold induction at 15 µM (SFRP-1 [2]; [5]) | fold induction at 15 µM (SFRP-1 [2]; [6]) | fold induction at 15 µM (SFRP-1 [2]; [7]) | fold induction at 10 µM (SFRP-1 [2]; read-out: Fold Induction with SFRP-1)
1 | CCOC(=O)NC(=S)N1CCC(NS(=O)(=O)c2cc(S(=O)(=O)c3ccc(F)cc3)ccc2C(C)C)CC1 [Example 693, ethyl({4-[({5-[(4-fluorophenyl)sulfonyl]-2-isopropylphenyl}sulfonyl)amino]piperidin-1-yl}carbonothioyl)carbamate] | 400 nM | 1080 | 3.5 | – | – | – | – | –
2 | CC(C)c1ccc(S(=O)(=O)c2ccc3[nH]ccc3c2)cc1S(=O)(=O)NCCc1ccccn1 [Example 540, 5-(1H-indol-5-ylsulfonyl)-2-isopropyl-N-(2-pyridin-2-ylethyl)benzenesulfonamide] | 200 nM | – | – | 3.6 | 1.2 | – | – | –
3 | Cc1c(C#N)cccc1S(=O)(=O)c1ccc(C(C)C)c(S(=O)(=O)NCCc2ccccn2)c1 [Example 593, 5-[(3-cyano-2-methylphenyl)sulfonyl]-2-isopropyl-N-(2-pyridin-2-ylethyl)benzenesulfonamide] | 900 nM | – | – | 2 | 1.1 | – | – | –
4 | Cn1ccc2cc(S(=O)(=O)c3ccc(Cl)c(S(=O)(=O)NC4CCOCC4)c3)ccc21 [Example 607, 2-chloro-5-[(1-methyl-1H-indol-5-yl)sulfonyl]-N-(tetrahydro-2H-pyran-4-yl)benzenesulfonamide] | 2000 nM | – | – | 2.3 | 1.1 | – | – | –
5 | Cc1ccc(S(=O)(=O)c2ccc(NCc3ccccc3)cc2)cc1S(=O)(=O)NCCCn1ccnc1 [Example 370, 5-{[4-(benzylamino)phenyl]sulfonyl}-N-[3-(1H-imidazol-1-yl)propyl]-2-methylbenzenesulfonamide] | 500 nM | – | – | – | – | 1.8 | 0.8 | –
6 | CC(C)c1ccc(S(=O)(=O)c2ccc(F)c(Cl)c2)cc1S(=O)(=O)NCCc1ccccn1 [Example 595, 5-[(3-chloro-4-fluorophenyl)sulfonyl]-2-isopropyl-N-(2-pyridin-2-ylethyl)benzenesulfonamide] | 1200 nM | – | – | 3.4 | 1.4 | – | – | –
7 | O=S(=O)(NCCn1ccnc1)c1cc(S(=O)(=O)c2ccccc2)ccc1C(F)(F)F [Example 739, N-[2-(1H-Imidazol-1-yl)ethyl]-5-(phenylsulfonyl)-2-(trifluoromethyl)benzenesulfonamide] | 180 nM | 720 | 5.1 | – | – | – | – | –
8 | Cc1ccc(S(=O)(=O)c2ccccc2)cc1S(=O)(=O)NC1CCC1 [Example 398, N-cyclobutyl-2-methyl-5-(phenylsulfonyl)benzenesulfonamide] | 9000 nM | – | – | – | – | 2.6 | 1.2 | –
9 | CC(C)c1ccc(S(=O)(=O)c2ccc(F)cc2)cc1S(=O)(=O)NCC(O)c1ccccc1 (centres unmarked) [Example 732, 5-[(4-fluorophenyl)sulfonyl]-N-(2-hydroxy-2-phenylethyl)-2-isopropylbenzenesulfonamide] | 1100 nM | – | 4.2 | – | – | – | – | –
10 | CN(CCNS(=O)(=O)c1cc(S(=O)(=O)c2ccccc2)ccc1C(F)(F)F)C(=O)Oc1ccc(F)cc1 [Example 872, 4-fluorophenyl methyl[2-({[5-(phenylsulfonyl)-2-(trifluoromethyl)phenyl]sulfonyl]amino)ethyl]carbamate] | 600 nM | 1950 | – | – | – | – | – | 3.1
11 | O=C(c1ccc(F)c(F)c1)N1CCC(NS(=O)(=O)c2cc(S(=O)(=O)c3ccccc3)ccc2C(F)(F)F)CC1 [Example 705, N-[1-(3,4-difluorobenzoyl)piperidin-4-yl]-5-(phenylsulfonyl)-2-(trifluoromethyl)benzenesulfonamide] | 200 nM | 787 | 3.5 | – | – | – | – | –
12 | Cc1ccc(S(=O)(=O)c2ccc(N3CCOCC3)cc2)cc1S(=O)(=O)NCCCn1ccnc1 [Example 313, N-[3-(1H-imidazol-1-yl)propyl]-2-methyl-5-[(4-morpholin-4-ylphenyl)sulfonyl]benzenesulfonamide] | 500 nM | – | – | – | – | 1.9 | 1 | –
13 | CC(C)c1ccc([S@+]([O-])c2ccccc2)cc1S(=O)(=O)NCCc1ccccn1 [Example 590, 2-isopropyl-5-[(R)-phenylsulfinyl]-N-(2-pyridin-2-ylethyl)benzenesulfonamide] | 2000 nM and 2500 nM | – | – | 2.9 | 1 | – | – | –
14 | Cc1ccc(S(=O)(=O)c2ccc3[nH]ccc3c2)cc1S(=O)(=O)NCCc1ccccn1 [Example 427, 5-(1H-indol-5-ylsulfonyl)-2-methyl-N-(2-pyridin-2-ylethyl)benzenesulfonamide] | 1100 nM | – | – | – | – | 2 | 0.9 | –
15 | CCCCOC(=O)N(C)CCNS(=O)(=O)c1cc(S(=O)(=O)c2ccccc2)ccc1C(F)(F)F [Example 865, butyl methyl[2-({[5-(phenylsulfonyl)-2-(trifluoromethyl)phenyl]sulfonyl}amino)ethyl]carbamate] | 300 nM | 2140 | 2.9 | – | – | – | – | –
16 | CC(C)c1ccc(S(=O)(=O)c2ccc(C(C)(C)C)cc2)cc1S(=O)(=O)NC1CCOCC1 [Example 437, 5-[(4-tert-butylphenyl)sulfonyl]-2-isopropyl-N-(tetrahydro-2H-pyran-4-yl)benzenesulfonamide] | 5000 nM | – | – | – | – | 2.2 | 1 | –
17 | CN(CCNS(=O)(=O)c1cc(S(=O)(=O)c2ccccc2)ccc1C(F)(F)F)C(=O)N1CCOCC1 [Example 835, N-methyl-N-[2-({[5-(phenylsulfonyl)-2-(trifluoromethyl)phenyl]sulfonyl}amino)ethyl]morpholine-4-carboxamide] | 1000 nM | – | 3.3 | – | – | – | – | –
18 | O=C(CN1CCC(NS(=O)(=O)c2cc(S(=O)(=O)c3ccccc3)ccc2C(F)(F)F)CC1)c1ccccc1 [Example 751, N-[1-(2-oxo-2-phenylethyl)piperidin-4-yl]-5-(phenylsulfonyl)-2-(trifluoromethyl)benzenesulfonamide] | 300 nM | 4850 | 3.1 | – | – | – | – | –
19 | CCC(O)CNS(=O)(=O)c1cc(S(=O)(=O)c2ccc(F)cc2)ccc1C(C)C (centres unmarked) [Example 738, 5-[(4-fluorophenyl)sulfonyl]-N-(2-hydroxybutyl)-2-isopropylbenzenesulfonamide] | 7000 nM | – | 2.9 | – | – | – | – | –
20 | O=S(=O)(NCCc1ccc(O)cc1)c1cc(S(=O)(=O)c2ccccc2)ccc1C(F)(F)F [Example 943, N-[2-(4-hydroxyphenyl)ethyl]-5-(phenylsulfonyl)-2-(trifluoromethyl)benzenesulfonamide] | 400 nM | 569 | 3.4 | – | – | – | – | –
21 | CC[C@H](C)[C@@H](CO)Nc1ccc(S(=O)(=O)c2ccc(C)c(S(=O)(=O)NCCCn3ccnc3)c2)cc1 [Example 354, 5-[(4-{[(1S,2S)-1-(hydroxymethyl)-2-methylbutyl]amino}phenyl)sulfonyl]-N-[3-(1H-imidazol-1-yl)propyl]-2-methylbenzenesulfonamide] | 1400 nM | – | – | – | – | 2.6 | 1 | –
22 | O=S(=O)(NC1Cc2ccc(Br)cc2C1)c1cc(S(=O)(=O)c2ccccc2)ccc1C(F)(F)F (centres unmarked) [Example 1094, N-(5-bromo-2,3-dihydro-1H-inden-2-yl)-5-(phenylsulfonyl)-2-(trifluoromethyl)benzenesulfonamide] | 110 nM | – | 10.4 | – | – | – | – | –
